According to ChEMBL document CHEMBL1201862, “PubChem BioAssay data set” (2004):
The source made the active and inactive calls.

Experiments:
Leucine aminopeptidase = Leucine aminopeptidase (Plasmodium falciparum 3D7, UniProt Q8IL11); experiment: P. falciparum M17LAP inhibitors, primary screen, biochemical, fluorogenic H-Leu-NHMec substrate, 1536-well (AID 1619); assay type: functional
[1] = A cytotoxicity screen of small molecule inhibitors of the PhoP region in Salmonella typhi identified in the primary screen. [Related pubchem assays: 1850, 1864, 1985 ]; assay type: functional
Protein Rev = Protein Rev (Human immunodeficiency virus type 1 group M subtype B (isolate WMJ22)(HIV-1), UniProt P05866); experiment: HIV-1 Rev-RRE RNA binding disruptors, dose response, biochemical, protein-RNA interaction (AID 842); set-up: species or system Human immunodeficiency virus 1
HEK293 = experiment: Fluorescence-based counterscreen for potentiators or agonists of NPY-Y2: cell-based high-throughput dose response assay to identify inhibitors of cyclic nucleotide gated ion channel (CNGC) activity. In this assay, the parental HEK293 cell line transfected with a cyclic-nucleotide gated ion channel (CNGC)-based cAMP sensor is used to measure inhibition of isoproterenol-induced CNGC activity by test compound.; assay type: functional; details: Homo sapiens
[2] = target: T1, Neuropeptide Y receptor type 1 (Homo sapiens, UniProt P25929); experiment: Fluorescence-based counterscreen for agonists of NPY-Y2: cell-based high-throughput dose response assay for agonists of NPY-Y1.; assay type: functional
T1 sequence (P25929 whole entry): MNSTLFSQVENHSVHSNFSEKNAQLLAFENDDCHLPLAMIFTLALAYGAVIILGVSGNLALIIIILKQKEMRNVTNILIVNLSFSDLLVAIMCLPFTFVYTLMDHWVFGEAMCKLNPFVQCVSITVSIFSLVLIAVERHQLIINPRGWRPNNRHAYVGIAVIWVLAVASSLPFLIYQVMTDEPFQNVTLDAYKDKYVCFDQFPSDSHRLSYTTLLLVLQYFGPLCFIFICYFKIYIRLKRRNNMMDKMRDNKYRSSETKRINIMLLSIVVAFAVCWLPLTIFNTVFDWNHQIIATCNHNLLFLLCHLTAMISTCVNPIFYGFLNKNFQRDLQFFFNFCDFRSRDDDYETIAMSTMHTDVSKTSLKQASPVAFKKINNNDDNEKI

[3] = target: T2, Neuropeptide Y receptor type 2 (Homo sapiens, UniProt P49146); experiment: Fluorescence-based cell-based high-throughput dose response assay for agonists of NPY-Y2. [Related pubchem assays: 1703 (Screening assay (CNGC inhibitors).), 1359 (Screening assay (NPY-Y2 potentiators or agonists).), 1304 (Screening assay (NPY-Y1 potentiators or agonists).), 1710 (Screening assay (NPY-Y2 agonists).), 1791 (Summary AID.)]; assay type: functional
T2 sequence (P49146 whole entry): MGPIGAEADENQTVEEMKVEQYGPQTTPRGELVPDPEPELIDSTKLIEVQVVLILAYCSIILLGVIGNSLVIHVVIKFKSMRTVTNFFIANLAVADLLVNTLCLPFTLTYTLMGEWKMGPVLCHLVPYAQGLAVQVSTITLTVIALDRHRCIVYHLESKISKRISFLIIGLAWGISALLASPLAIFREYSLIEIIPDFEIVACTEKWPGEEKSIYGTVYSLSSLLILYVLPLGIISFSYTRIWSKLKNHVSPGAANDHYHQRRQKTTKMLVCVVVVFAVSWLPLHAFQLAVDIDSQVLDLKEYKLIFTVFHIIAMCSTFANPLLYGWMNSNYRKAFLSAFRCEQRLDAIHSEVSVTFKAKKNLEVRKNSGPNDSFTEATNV

[4] = target: Lysosomal acid glucosylceramidase (Homo sapiens, UniProt P04062); experiment: Dose response cell-based high throughput screening assay to identify enhancers of beta-glucosidase activity. [Related pubchem assays: 784 ]; assay type: functional
[5] = target: Acyl-homoserine lactone acylase PvdQ (Pseudomonas aeruginosa (strain LESB58), UniProt Q9I194); experiment: P. aeruginosa PvdQ acylase inhibitors, dose response, biochemical, fluorescence, plate reader and imaging, cherry-picks (AID 493231)
NADPH oxidase 1 = NADPH oxidase 1 (Homo sapiens, UniProt Q9Y5S8); assay type: functional, cell-based;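 note: Cell-based assay with luminescence read-out, IC50 derived from inhibitor dose-response curves; intracellular ROS from endogenous NOX1 in intact HT29 colon cancer cells; potency of inhibitors that lower the ROS luminescence signal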
Chain of NADPH oxidase 1 (Q9Y5S8 whole entry): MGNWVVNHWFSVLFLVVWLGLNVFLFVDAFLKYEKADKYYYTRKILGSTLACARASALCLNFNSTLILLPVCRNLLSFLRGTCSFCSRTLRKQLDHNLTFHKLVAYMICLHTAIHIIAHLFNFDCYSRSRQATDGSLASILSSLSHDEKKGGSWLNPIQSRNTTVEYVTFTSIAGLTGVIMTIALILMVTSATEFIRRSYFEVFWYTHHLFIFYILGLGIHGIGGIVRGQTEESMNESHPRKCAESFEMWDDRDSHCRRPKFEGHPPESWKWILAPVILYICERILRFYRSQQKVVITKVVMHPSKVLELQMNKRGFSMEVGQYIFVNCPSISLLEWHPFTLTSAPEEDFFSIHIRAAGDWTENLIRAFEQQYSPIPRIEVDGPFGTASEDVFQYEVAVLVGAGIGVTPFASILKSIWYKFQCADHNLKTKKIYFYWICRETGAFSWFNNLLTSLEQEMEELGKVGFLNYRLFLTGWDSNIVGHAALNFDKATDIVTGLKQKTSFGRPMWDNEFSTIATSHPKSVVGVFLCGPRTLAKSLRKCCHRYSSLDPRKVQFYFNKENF

Chain of Lysosomal acid glucosylceramidase (P04062 whole entry): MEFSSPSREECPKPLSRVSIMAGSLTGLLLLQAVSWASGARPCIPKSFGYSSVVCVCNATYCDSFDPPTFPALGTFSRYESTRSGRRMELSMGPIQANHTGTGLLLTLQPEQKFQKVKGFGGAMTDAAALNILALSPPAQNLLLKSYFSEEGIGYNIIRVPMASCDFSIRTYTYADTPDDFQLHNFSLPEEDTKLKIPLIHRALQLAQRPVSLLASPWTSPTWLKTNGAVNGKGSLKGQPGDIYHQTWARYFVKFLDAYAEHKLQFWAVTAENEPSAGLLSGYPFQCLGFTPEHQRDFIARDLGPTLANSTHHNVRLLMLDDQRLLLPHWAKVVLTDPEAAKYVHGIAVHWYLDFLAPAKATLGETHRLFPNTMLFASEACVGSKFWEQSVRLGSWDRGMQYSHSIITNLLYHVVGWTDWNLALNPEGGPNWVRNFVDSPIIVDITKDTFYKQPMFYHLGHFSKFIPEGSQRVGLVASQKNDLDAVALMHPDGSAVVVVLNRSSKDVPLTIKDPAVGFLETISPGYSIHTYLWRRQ
Chain of Protein Rev (P05866 whole entry): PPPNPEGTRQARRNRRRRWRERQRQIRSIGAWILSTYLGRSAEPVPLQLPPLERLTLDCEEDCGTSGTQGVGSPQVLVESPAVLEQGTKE
Chain of Leucine aminopeptidase (Q8IL11 whole entry): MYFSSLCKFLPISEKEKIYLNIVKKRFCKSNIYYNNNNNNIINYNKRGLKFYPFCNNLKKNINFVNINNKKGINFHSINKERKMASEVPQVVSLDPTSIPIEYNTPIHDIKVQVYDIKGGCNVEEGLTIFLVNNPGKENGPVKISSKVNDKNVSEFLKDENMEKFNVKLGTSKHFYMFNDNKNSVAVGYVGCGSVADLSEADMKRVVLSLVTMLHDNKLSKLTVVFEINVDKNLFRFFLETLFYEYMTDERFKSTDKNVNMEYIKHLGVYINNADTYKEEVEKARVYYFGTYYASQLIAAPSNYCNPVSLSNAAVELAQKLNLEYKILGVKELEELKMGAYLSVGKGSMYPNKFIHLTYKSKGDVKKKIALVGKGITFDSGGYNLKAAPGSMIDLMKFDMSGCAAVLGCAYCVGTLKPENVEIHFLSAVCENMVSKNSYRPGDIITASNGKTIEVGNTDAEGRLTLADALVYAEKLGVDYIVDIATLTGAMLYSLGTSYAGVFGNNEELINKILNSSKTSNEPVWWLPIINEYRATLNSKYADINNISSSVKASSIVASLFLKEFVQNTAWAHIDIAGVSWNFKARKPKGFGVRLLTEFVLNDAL
Chain of Acyl-homoserine lactone acylase PvdQ (Q9I194 24-193 limits assumed): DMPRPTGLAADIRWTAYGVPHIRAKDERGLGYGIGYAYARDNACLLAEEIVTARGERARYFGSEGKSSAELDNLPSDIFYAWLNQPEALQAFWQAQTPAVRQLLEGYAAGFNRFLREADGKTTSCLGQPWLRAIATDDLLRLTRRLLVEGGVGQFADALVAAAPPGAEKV
Chain of Acyl-homoserine lactone acylase PvdQ (Q9I194 217-762 limits assumed): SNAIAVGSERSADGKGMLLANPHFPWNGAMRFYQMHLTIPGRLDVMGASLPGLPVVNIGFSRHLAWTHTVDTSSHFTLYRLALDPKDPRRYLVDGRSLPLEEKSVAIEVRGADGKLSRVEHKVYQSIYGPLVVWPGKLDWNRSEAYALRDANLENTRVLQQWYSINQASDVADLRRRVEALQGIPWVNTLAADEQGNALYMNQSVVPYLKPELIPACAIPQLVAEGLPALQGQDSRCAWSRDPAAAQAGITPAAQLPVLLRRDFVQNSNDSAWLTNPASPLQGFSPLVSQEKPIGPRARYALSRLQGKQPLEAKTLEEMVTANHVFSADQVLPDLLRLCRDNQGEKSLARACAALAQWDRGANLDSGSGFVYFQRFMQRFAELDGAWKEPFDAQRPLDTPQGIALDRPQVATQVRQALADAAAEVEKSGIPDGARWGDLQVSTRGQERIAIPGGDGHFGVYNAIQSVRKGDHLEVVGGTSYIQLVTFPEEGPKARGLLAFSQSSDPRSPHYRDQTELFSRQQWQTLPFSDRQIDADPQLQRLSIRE

## COc1ccc(NC(=O)Nc2ccc(C(=O)N3CCOCC3)cc2)cc1
Leucine aminopeptidase
  IC50: 31.6 µM (active)

## CC(C)(C)n1nc2c(c1NC(=O)c1ccccc1)CS(=O)(=O)C2
[1]
  EC50: > 50 µM (active)

## O=C(CN1C2=NCCN2c2ccccc21)c1ccc(Br)cc1
Protein Rev
  IC50: > 79.4 µM (not active)

## C=CCc1ccccc1OCC(O)CN1CCN(c2ccc(C)cc2)CC1 (centres undefined)
HEK293
  EC50: 1.78 µM (active)
[2]
  EC50: 8.5 µM (active)
[3]
  EC50: 14.8 µM (not active)

## Cc1ccc(-n2c(=O)c(C#N)cc3c(=O)n4ccccc4nc32)cc1
[4]
  EC50: > 50 µM (not active)

## Clc1ccc2scc(CN3CCCC3)c2c1
[5]
  AC50: 2.66 µM (active)

## CN(C)c1ccc(-c2nc(-c3ccccc3)c(-c3ccccc3)[nH]2)cc1
NADPH oxidase 1
  IC50: 7.95 µM (active)
